Data taken from patent publication US6596772B1, “Phosphate mimics and methods of treatment using phosphatase inhibitors” (Sugen, Inc., priority 1999, dated 2003).
Like-named read-outs stand apart in the source and are kept apart here.

Tests used:
Assay in all cases: PTP IC50 assay, pNPP or FDP as substrate
Type in all cases: biochemical
PTP BETA = biological target: T1, PTP BETA (Homo sapiens, UniProt P23467); settings: pNPP or FDP as substrate, 25° C.
T1 construct: The catalytic domain was amplified using the following oligonucleotides; made in house; host or cells: E. coli BL-21 (pGEX 6P-1)
T1 sequence (P23467 1653-1997): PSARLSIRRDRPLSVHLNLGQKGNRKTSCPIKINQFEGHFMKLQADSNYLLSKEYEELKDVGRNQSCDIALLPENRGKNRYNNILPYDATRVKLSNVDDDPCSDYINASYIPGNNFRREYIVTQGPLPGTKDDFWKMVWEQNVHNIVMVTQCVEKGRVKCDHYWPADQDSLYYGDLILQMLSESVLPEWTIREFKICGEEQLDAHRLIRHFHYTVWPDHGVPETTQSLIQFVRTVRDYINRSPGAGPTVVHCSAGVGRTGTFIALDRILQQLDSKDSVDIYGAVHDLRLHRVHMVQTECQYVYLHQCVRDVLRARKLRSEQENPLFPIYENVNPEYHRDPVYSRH
Method: (§1) The following in vitro assay procedure is preferred to determine the level of activity and effect of the different compounds of the present invention on one or more of the PTPs. Similar assays can be designed along the same lines for any PTP using techniques well known in the art.
(§2) The catalytic assays described herein are performed in a 96-well format. The general procedure begins with the determination of PTP optimal pH using a three-component buffer system that minimizes ionic strength variations across a wide range of buffer pH. Next, the Michaelis-Menten constant, or Km, is determined for each specific substrate-PTP system. This Km value is subsequently used as the substrate reaction concentration for compound screening. Finally, the test PTP is exposed to varying concentrations of compound for fifteen minutes and allowed to react with substrate for ten minutes. The results are plotted as percent inhibition versus compound concentration and the IC50 interpolated from the plot.
(§3) All assays were performed using pNPP or FDP as substrate. The optimum pH was determined for each PTP used.
(§4) PTPase activity was assayed at 25° C. in a 100-μl reaction mixture containing an appropriate concentration of pNPP or FDP as substrate. The reaction was initiated by addition of the PTP and quenched after 10 min by addition of 50 μl of IN NaOH. The non-enzymatic hydrolysis of the substrate was corrected by measuring the control without the addition of the enzyme. The amount of p-nitrophenol produced was determined from the absorbance at 410 nm. To determine the kinetic parameter, Km, the initial velocities were measured at various substrate concentrations and the data were fitted to the Michaelis equation where velocity=(Vmax*[S])/(Km+[S]), and [S]=substrate reaction concentration.
(§5) The effect of the compounds on PTP was evaluated at 25° C. using pNPP or FDP as substrate. PTP was pre-incubated for fifteen minutes with various concentrations of compound. Substrate was then added at a fixed concentration (usually equal to the Km previously calculated). After 10 minutes, NaOH was added to stop the reaction. The hydrolysis of pNPP was followed at 410 nm on the Biotek Powerwave 200 microplate scanning spectrophotometer. The percent inhibition was calculated as follows: Percent Inhibition=[(control signal−compound signal)/control signal] ×100%. The IC50 was then determined by interpolation of a percent inhibition versus compound concentration plot.
(§6) Plasmids designed for bacterial GST-PTP fusion protein expression were derived by insertion of PCR-generated human PTP fragments into pGEX vectors (Pharmacia Biotech). Several of these constructs were then used to subclone phosphatases into pFastBac-1for expression in Sf-9 insect cells. Oligonucleotides used for the initial amplification of PTP genes are shown below. The cDNAs were prepared using the Gilbo BRL superscript preamplification system on RNAs purchased from Clontech.
The PTP Beta cDNA used has been described earlier (Levy et al., 1993, J. Biol. Chem, 268:10573-10581). The catalytic domain was amplified using the following oligonucleotides: 5′oligo: 5′-[…]-3′ (SEQ ID NO: 16) 3′oligo: 5′-[…]-3′ (SEQ ID NO: 17) and subsequently cloned into the Eco RI/Xho I sites of pGEX 6P-1.

PTP EPSILON = biological target: T2, PTP EPSILON (Homo sapiens, UniProt P23469); settings: pNPP or FDP as substrate, 25° C.
T2 construct: made in house; host or cells: Sf-9 insect cells (pFastBac-G2T); a pGEX 6P-1 construct also existed
T2 sequence (P23469 80-393 limits assumed): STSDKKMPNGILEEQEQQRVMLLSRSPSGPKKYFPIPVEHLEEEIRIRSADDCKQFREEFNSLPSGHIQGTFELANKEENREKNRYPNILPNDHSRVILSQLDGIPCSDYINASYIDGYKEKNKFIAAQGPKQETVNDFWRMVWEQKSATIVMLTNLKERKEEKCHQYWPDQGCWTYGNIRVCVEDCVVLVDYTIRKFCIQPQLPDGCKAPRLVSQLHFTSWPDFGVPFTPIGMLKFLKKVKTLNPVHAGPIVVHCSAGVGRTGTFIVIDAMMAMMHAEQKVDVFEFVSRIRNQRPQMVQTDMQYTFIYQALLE
Method: as §1, §2, §3, §4, §5, §6
The PTPepsilon cDNA was amplified from human placenta single-strand cDNA (Clontech RNA) using the following oligonucleotides: 5′oligo: 5′-[…]-3′ (SEQ ID NO: 6) 3′oligo: 5′-[…]-3′ (SEQ ID NO: 7) After cloning this PCR product into the Bam HI/Xho I sites of pGEX 6P-1, this phosphatase was subcloned using the same restriction sites in pFastBac-G2T.

PTP ALPHA = biological target: T3, PTP ALPHA (Homo sapiens, UniProt P18433); settings: 25° C.
T3 construct: RTPα intracellular domain construct was obtained; made in house; host or cells: E. coli BL-21 (pGEX 3X)
Method: as §1, §2, §3, §4, §5, §6
RTPα intracellular domain construct was obtained, Schlessinger et al., U.S. Pat. No. 5,888,794, the contents of which are hereby incorporated in their entirety into the present application. The RTPα fragment was cloned into pGEX 3× using the following procedure. The portion from EclX I/Xma III/Eag I (N-terminus blunted by Klenow) to Eco RV was cloned into the Sma I site. The EclX I site is approximately 15 residues downstream of the transmembrane domain.

PTP MEG2 = biological target: T4, PTP MEG2 (Homo sapiens, UniProt P43378); settings: 25° C.
T4 construct: made in house; host or cells: E. coli BL-21 (pGEX 6P-1)
T4 sequence (P43378 262-593 limits assumed): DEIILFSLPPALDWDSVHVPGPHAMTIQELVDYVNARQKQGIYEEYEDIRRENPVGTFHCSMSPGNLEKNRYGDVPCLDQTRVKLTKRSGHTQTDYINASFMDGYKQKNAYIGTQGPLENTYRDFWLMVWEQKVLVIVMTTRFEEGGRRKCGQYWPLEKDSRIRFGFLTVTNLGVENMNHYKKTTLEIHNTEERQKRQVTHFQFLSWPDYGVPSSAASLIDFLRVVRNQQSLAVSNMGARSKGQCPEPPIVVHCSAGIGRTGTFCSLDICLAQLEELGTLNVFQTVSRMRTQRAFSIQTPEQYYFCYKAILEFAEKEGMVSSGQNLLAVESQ
Method: as §1, §2, §3, §4, §5, §6
The PTP MEG2 cDNA was amplified from human placenta single strand cDNA (Clontech RNA) using the following oligonucleotides: 5′oligo: 5′-[…]-3′ (SEQ ID NO: 8) 3′oligo: 5′-[…]-3′ (SEQ ID NO: 9) and subsequently ligated into pGex 6P-1 Eco RI/Xho I sites.

[1] = pNPP or FDP as substrate, read-out: PTP IC50 MEG2

Row | SMILES | IC50 (PTP BETA; read-out: PTP IC50 Beta) | IC50 (PTP EPSILON; read-out: PTP IC50 Epilson) | IC50 (PTP ALPHA) | IC50 (PTP MEG2; [1]) | IC50 (PTP BETA; PTP IC50 Beta) | IC50 (PTP EPSILON; PTP IC50 Epilson) | IC50 (PTP MEG2; PTP IC50 MEG2, pNPP or FDP as substrate)
1 | O=S(=O)(c1ccc(CCc2ccc(S(=O)(=O)C(F)(F)F)cc2)cc1)C(F)(F)F [Example 4, 1,2-Bis(4-trifluoromethylsulfonylphenyl)ethane] | 6.8 µM | 16.6 µM | > 100 µM | 45.9 µM | – | – | –
2 | O=C(NCc1ccc(S(=O)(=O)C(F)(F)F)cc1)c1ccc(S(=O)(=O)C(F)(F)F)cc1 [Example 5, N-(4-Trifluoromethylsulfonylbenzyl)-4-trifluoromethylsulfonylbenzamide] | 44.8 µM | 38.6 µM | > 100 µM | > 100 µM | – | – | –
3 | O=C(NCc1ccc(S(=O)(=O)C(F)(F)F)cc1)c1ccccc1 [Example 6, N-(4-Trifluoromethylsulfonylbenzyl)benzamide] | > 100 µM | > 100 µM | > 100 µM | > 100 µM | – | – | –
4 | O=C(O)c1ccc(Oc2cccc(Oc3ccc(S(=O)(=O)C(F)(F)F)cc3)c2)cc1 [Example 18, 4-[3-(4-Trifluoromethanesulfonyl-phenoxy)-phenoxy]-benzoic acid] | 13.5 µM | 0.77 µM | 40.4 µM | 44 µM | – | – | –
5 | CCOC(=O)COc1ccc(S(=O)(=O)c2ccc(Oc3ccc(S(=O)(=O)C(F)(F)F)cc3)cc2)cc1 [Example 19, {4-[4-(4-trifluoromethanesulfonyl-phenoxy)-benzenesulfonyl]-phenoxy}-acetic acid ethyl ester] | 1.9 µM | 31.4 µM | > 100 µM | 52.2 µM | – | – | –
6 | O=C(Cc1ccccc1CC(=O)Nc1cccc(S(=O)(=O)C(F)(F)F)c1)Nc1cccc(S(=O)(=O)C(F)(F)F)c1 [Example 20, N-(3-Trifluoromethanesulfonyl-phenyl)-2-{2-[(3-trifluoromethanesulfonyl-phenylcarbamoyl)-methyl]-phenyl}-acetamide] | 8.7 µM | 7.5 µM | > 100 µM | > 100 µM | – | – | –
7 | O=C(Cc1cccc(CC(=O)Nc2cccc(S(=O)(=O)C(F)(F)F)c2)c1)Nc1cccc(S(=O)(=O)C(F)(F)F)c1 [Example 21, N-(3-Trifluoromethanesulfonyl-phenyl)-2-{3-[(3-trifluoromethanesulfonyl-phenylcarbamoyl)-methyl]-phenyl}-acetamide] | 3.1 µM | 57.8 µM | > 100 µM | 49.4 µM | – | – | –
8 | O=C(Cc1ccc(CC(=O)Nc2cccc(S(=O)(=O)C(F)(F)F)c2)cc1)Nc1cccc(S(=O)(=O)C(F)(F)F)c1 [Example 22, N-(3-Trifluoromethanesulfonyl-phenyl)-2-{4-[(3-trifluoromethanesulfonyl-phenylcarbamoyl)-methyl]-phenyl}-acetamide] | 1.4 µM | 8.3 µM | > 100 µM | 27.5 µM | – | – | –
9 | O=[N+]([O-])c1cc(S(=O)(=O)C(F)(F)F)ccc1Oc1cc(CN2CCOCC2)c(Oc2ccc(S(=O)(=O)C(F)(F)F)cc2[N+](=O)[O-])cc1CN1CCOCC1 [Example 23, 3,6-Bis-(morpholin-4-ylmethyl)-2,5-bis-(2-nitro-4-trifluoromethanesulfonyl-phenoxy)-benzene] | 1.1 µM | 2.2 µM | > 100 µM | > 100 µM | – | – | –
10 | CN(C)CC(COc1ccc(S(=O)(=O)C(F)(F)F)cc1[N+](=O)[O-])Oc1ccc(S(=O)(=O)C(F)(F)F)cc1[N+](=O)[O-] (centres unmarked) [Example 24, [2,3-Bis-(2-nitro-4-trifluoromethanesulfonyl-phenoxy)-propyl]-dimethyl-amine] | 5.1 µM | > 100 µM | > 100 µM | > 100 µM | – | – | –
11 | CCNc1ccc(S(=O)(=O)C(F)(F)F)cc1NC(=O)Cc1ccc(S(C)(=O)=O)cc1 [Example 25, N-(2-Ethylamino-5-trifluoromethanesulfonyl-phenyl)-2-(4-methanesulfonyl-phenyl)-acetamide] | 0.35 µM | 41.4 µM | > 100 µM | 52.6 µM | – | – | –
12 | CCOC(=O)c1cc(Oc2ccc(S(=O)(=O)C(F)(F)F)cc2[N+](=O)[O-])c(C(=O)OCC)cc1O [Example 26, 2-Hydroxy-5-(2-nitro-4-trifluoromethanesulfonyl-phenoxy)-terephthalic acid diethyl ester] | 2.9 µM | 6.2 µM | > 100 µM | 90.8 µM | – | – | –
13 | O=C(O)Cc1ccccc1CC(=O)Nc1cccc(S(=O)(=O)C(F)(F)F)c1 [Example 27, {2-[(3-Trifluoromethanesulfonyl-phenylcarbamoyl)-methyl]-phenyl}-acetic acid] | 61.4 µM | 3.8 µM | > 100 µM | > 100 µM | – | – | –
14 | O=C(O)Cc1cccc(CC(=O)Nc2cccc(S(=O)(=O)C(F)(F)F)c2)c1 [Example 28, {3-[(3-Trifluoromethanesulfonyl-phenylcarbamoyl)-methyl]-phenyl}-acetic acid] | 3.2 µM | 3.1 µM | 36.2 µM | 33.3 µM | – | – | –
15 | O=C(O)Cc1ccc(CC(=O)Nc2cccc(S(=O)(=O)C(F)(F)F)c2)cc1 [Example 29, {4-[(3-Trifluoromethanesulfonyl-phenylcarbamoyl)-methyl]-phenyl}-acetic acid] | 6.4 µM | 26.1 µM | 19.3 µM | 68.3 µM | – | – | –
16 | NC(=O)c1cc(Oc2ccc(S(=O)(=O)C(F)(F)F)cc2[N+](=O)[O-])cc(Oc2ccc(S(=O)(=O)C(F)(F)F)cc2[N+](=O)[O-])c1 [Example 30, 3,5-Bis-(2-nitro-4-trifluoromethanesulfonyl-phenoxy)-benzamide] | – | – | > 100 µM | – | 3.4 µM | 4.3 µM | 64.3 µM
17 | O=C(O)c1cc(Oc2ccc(S(=O)(=O)C(F)(F)F)cc2)cc(Oc2ccc(S(=O)(=O)C(F)(F)F)cc2)c1 [Example 31, 3,5-Bis-(4-trifluoromethanesulfonyl-phenoxy)-benzoic acid] | 4.5 µM | 1.8 µM | 6 µM | 9.6 µM | – | – | –
